Data as given in patent publication US11382956B2, “Amylin analogues” (Zealand Pharma A/S, priority 2016, dated 2022).
Numbered stars: 1 amine (or outer) side, 2 acyl side, 3 side chain; on linkers, the order of the positions; unused ones are H or OH. Bridge positions count the residues as written; N and C are the ends. Square brackets hold non-standard residues; d marks the D form. Peptide text beside a SMILES is read from it. * marks the point of attachment. C20 diacid = O=C(O)CCCCCCCCCCCCCCCCCCC(=O)*; γGlu = O=C(O)[C@H](CCC(=O)[*:2])N[*:1]; Hyp = O=C(O)[C@@H]1C[C@@H](O)CN1; NMeI = CC[C@H](C)[C@H](NC)C(=O)O; Aad = N[C@@H](CCCC(=O)O)C(=O)O; Orn = NCCC[C@H](N)C(=O)O; Sar = CNCC(=O)O

How the values were obtained:
[1] = target: T1, recombinant human calcitonin receptor (hCT-R) (Homo sapiens, UniProt P30988); test: hCT-R cAMP assay (AlphaScreen) in 1321N1 cells; assay type: cell-based; conditions: cAMP formation, 45 min stimulation
T1 construct: host or cells: human astrocytoma cell line 1321N1
T1 sequence (P30988 25-474): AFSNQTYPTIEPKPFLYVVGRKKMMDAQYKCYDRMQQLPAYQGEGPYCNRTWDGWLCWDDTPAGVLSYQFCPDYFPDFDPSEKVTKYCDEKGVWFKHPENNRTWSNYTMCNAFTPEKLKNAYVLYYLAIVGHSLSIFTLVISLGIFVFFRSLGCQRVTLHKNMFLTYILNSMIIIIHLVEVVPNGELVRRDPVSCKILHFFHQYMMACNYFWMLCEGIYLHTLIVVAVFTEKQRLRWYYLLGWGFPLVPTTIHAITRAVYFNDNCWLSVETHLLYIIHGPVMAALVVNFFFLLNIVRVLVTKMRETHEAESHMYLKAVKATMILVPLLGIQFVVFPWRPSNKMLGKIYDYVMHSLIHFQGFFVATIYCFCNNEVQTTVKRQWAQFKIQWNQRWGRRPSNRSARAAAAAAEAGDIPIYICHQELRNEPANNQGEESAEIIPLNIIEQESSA
Procedure, shortened: (§1)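 EC50 values come from curve fits over at least 7 peptide concentrations, with cAMP read by AlphaScreen competition after 1 h in the dark. Cells were 1321N1 lines carrying human calcitonin receptor, with RAMP3 co-expressed for AMY3, treated 45 min at room temperature in the presence of IBMX.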

[2] = target: T2, recombinant human amylin 3 receptor (hAMYR3) (Homo sapiens, UniProt O60896+P30988); test: hAMYR3 cAMP assay (AlphaScreen) in 1321N1 cells; assay type: cell-based; conditions: cAMP formation, 45 min stimulation
T2 construct: host or cells: human astrocytoma cell line 1321N1
T2 sequence (P30988 25-474): T1 sequence (P30988 25-474)
T2 sequence (O60896 24-148 partner): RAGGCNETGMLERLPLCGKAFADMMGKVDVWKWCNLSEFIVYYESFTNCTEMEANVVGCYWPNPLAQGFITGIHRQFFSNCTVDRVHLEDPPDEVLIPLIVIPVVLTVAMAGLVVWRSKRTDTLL
Procedure, shortened: as §1

[3] = Assessment of physical stability: fibril formation by Thioflavin T fluorescence; assay type: physicochemical; set-up: key: FND = fibrillation not detected; FD = fibrillation detected; conditions: 1 mg/mL peptide; for Fibrillation (in buffer) pH4 acetate: 50 mM acetate buffer pH 4.0, 96 hours at 40° C.; for Fibrillation (in buffer) pH7 histidine: 50 mM histidine buffer pH 7.0, 96 hours at 40° C.; for Fibrillation (in buffer) pH7 phosphate: 50 mM phosphate buffer pH 7.0, 96 hours at 40° C.
Procedure: Solutions containing (i) 1 mg/mL of test peptide, 40 μM ThT and 50 mM phosphate (Ph) buffer (pH 7.0), (ii) 1 mg/mL of test peptide, 40 μM ThT and 50 mM histidine (His) buffer (pH 7.0), and (iii) 1 mg/mL of test peptide, 40 μM ThT and 50 mM acetate (Ac) buffer (pH 4.0), were loaded in a 96-well black fluorescence plate (clear bottom) in triplicate. Data were collected at fixed intervals of 10 min, each preceded by 300 s of automixing (agitation), over a period of 96 hours at 40° C. Physical stability is determined by measuring the fluorescence intensity over time. A significant increase in intensity is rated as fibrillation detected (FD).

[4] = Assessment of chemical stability in 40 mM buffers at 40° C. (RP-HPLC); assay type: physicochemical; conditions: 1 mg/mL; for % degradation after 72 h at 40° C. pH4 acetate: acetate buffer pH 4, 72 h; for % degradation after 72 h at 40° C. pH6 phosphate: phosphate buffer pH 6, 72 h; for % degradation after 72 h at 40° C. pH7 phosphate: phosphate buffer pH 7, 72 h
Procedure, shortened: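 Degradation is the main-peak area-% at each time point minus that at t=0, measured by C8 reversed-phase HPLC (TFA/acetonitrile/water gradient, 220 nm). Incubation at 40° C for 3 or 14 days, 1 mg/mL peptide in 40 mM buffer at pH 4, 6 or 7.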

EC50 [1]	EC50 [2]	Fibrillation (in buffer) pH4 acetate [3]	Fibrillation (in buffer) pH7 histidine [3]	Fibrillation (in buffer) pH7 phosphate [3]	% degradation after 72 h at 40° C. pH4 acetate [4]	% degradation after 72 h at 40° C. pH6 phosphate [4]	% degradation after 72 h at 40° C. pH7 phosphate [4]	% degradation after 14 days at 40° C. pH4 acetate ([4]; acetate buffer pH 4, 14 days)	% degradation after 14 days at 40° C. pH6 phosphate ([4]; phosphate buffer pH 6, 14 days)	% degradation after 14 days at 40° C. pH7 phosphate ([4]; phosphate buffer pH 7, 14 days)	Structure (SMILES)
0.037 nM	0.01 nM	FND	FND	FND	<1%	<1%	<1%				CC[C@H](C)[C@@H](C(=O)N1CCC[C@H]1C(=O)N[C@@H](CO)C(=O)N[C@@H](CO)C(=O)N[C@H](C(=O)N[C@@H](CCC(=O)O)C(=O)N[C@H](C(=O)NCC(=O)N[C@@H](CO)C(=O)N[C@@H](CC(N)=O)C(=O)N[C@H](C(=O)N1C[C@H](O)C[C@H]1C(N)=O)[C@@H](C)O)C(C)C)[C@@H](C)O)N(C)C(=O)[C@H](C)NC(=O)CN(C)C(=O)[C@H](Cc1ccccc1)NC(=O)[C@H](CO)NC(=O)[C@H](CO)NC(=O)[C@H](CCCNC(=N)N)NC(=O)[C@H](CCC(N)=O)NC(=O)[C@H](CC(C)C)NC(=O)[C@H](Cc1ccccc1)NC(=O)[C@H](CCCC(=O)O)NC(=O)[C@H](C)NC(=O)[C@H](CC(C)C)NC(=O)[C@H](CCCNC(=N)N)NC(=O)[C@H](CCC(=O)O)NC(=O)[C@@H](NC(=O)[C@H](C)NC(=O)[C@@H]1CCCNC(=O)C[C@H](NC(=O)[C@H](CCCNC(=N)N)NC(=O)CC[C@H](NC(=O)CCCCCCCCCCCCCCCCCCC(=O)O)C(=O)O)C(=O)NCC(=O)N[C@@H]([C@@H](C)O)C(=O)N[C@@H](C)C(=O)N[C@@H]([C@@H](C)O)C(=O)N1)[C@@H](C)O [Compound 21, [19CD]-isoGlu-RD()GTAT-Orn()-ATERLA-Aad-FLQRSSF-Gly(Me)-A-Ile(Me)-PSSTEVGSNT-Hyp-NH2] ({C20 diacid-γGlu}-RDGTAT[Orn]ATERLA[Aad]FLQRSSF[Sar]A[NMeI]PSSTEVGSNT[Hyp]-NH2; lactam 2-7)
0.075 nM	0.031 nM	FND	FND	FND				3.2%	12.6%	20.3%	CC[C@H](C)[C@@H](C(=O)N[C@@H](CC(C)C)C(=O)N[C@@H](CO)C(=O)N[C@@H](CO)C(=O)N[C@H](C(=O)N[C@@H](CCC(=O)O)C(=O)N[C@H](C(=O)NCC(=O)N[C@@H](CO)C(=O)N[C@@H](CC(N)=O)C(=O)N[C@H](C(=O)N1C[C@H](O)C[C@H]1C(N)=O)[C@@H](C)O)C(C)C)[C@@H](C)O)N(C)C(=O)[C@H](C)NC(=O)CN(C)C(=O)[C@H](Cc1ccccc1)NC(=O)[C@H](CO)NC(=O)[C@H](CO)NC(=O)[C@H](CCCNC(=N)N)NC(=O)[C@H](CCC(N)=O)NC(=O)[C@H](CC(C)C)NC(=O)[C@H](Cc1ccccc1)NC(=O)[C@H](CCCC(=O)O)NC(=O)[C@H](C)NC(=O)[C@H](CC(C)C)NC(=O)[C@H](CCCNC(=N)N)NC(=O)[C@H](CCC(=O)O)NC(=O)[C@@H](NC(=O)[C@H](C)NC(=O)[C@@H]1CSSC[C@H](NC(=O)[C@H](CCCNC(=N)N)NC(=O)CC[C@H](NC(=O)CCCCCCCCCCCCCCCCCCC(=O)O)C(=O)O)C(=O)NCC(=O)N[C@@H]([C@@H](C)O)C(=O)N[C@@H](C)C(=O)N[C@@H]([C@@H](C)O)C(=O)N1)[C@@H](C)O [Ref. 4, [19CD]-isoGlu-RC()GTATC()ATERLA-Aad-FLQRSSF-Sar-A-Ile(Me)-LSSTEVGSNT-Hyp-NH2, reference compound] ({C20 diacid-γGlu}-RCGTATCATERLA[Aad]FLQRSSF[Sar]A[NMeI]LSSTEVGSNT[Hyp]-NH2; disulfide 2-7)
0.844 nM	0.336 nM	FND	FND	FND			<1%				CC[C@H](C)[C@@H](C(=O)N[C@@H](CC(C)C)C(=O)N[C@@H](CO)C(=O)N[C@@H](CO)C(=O)N[C@H](C(=O)N[C@@H](CCC(=O)O)C(=O)N[C@H](C(=O)NCC(=O)N[C@@H](CO)C(=O)N[C@@H](CC(N)=O)C(=O)N[C@H](C(=O)N1C[C@H](O)C[C@H]1C(N)=O)[C@@H](C)O)C(C)C)[C@@H](C)O)N(C)C(=O)[C@H](C)NC(=O)CN(C)C(=O)[C@H](Cc1ccccc1)NC(=O)[C@@H](NC(=O)[C@H](C)NC(=O)[C@H](CCCNC(=N)N)NC(=O)[C@H](CCC(N)=O)NC(=O)[C@H](CC(C)C)NC(=O)[C@H](Cc1ccccc1)NC(=O)[C@H](CCCC(=O)O)NC(=O)[C@H](C)NC(=O)[C@H](CC(C)C)NC(=O)[C@H](CCCNC(=N)N)NC(=O)[C@H](CCC(=O)O)NC(=O)[C@@H](NC(=O)[C@H](C)NC(=O)[C@@H]1CCCNC(=O)C[C@H](NC(=O)[C@H](CCCNC(=N)N)NC(=O)CC[C@H](NC(=O)CCCCCCCCCCCCCCCCCCC(=O)O)C(=O)O)C(=O)NCC(=O)N[C@@H]([C@@H](C)O)C(=O)N[C@@H](C)C(=O)N[C@@H]([C@@H](C)O)C(=O)N1)[C@@H](C)O)[C@@H](C)O [Compound 25, [19CD]-isoGlu-RD()GTAT-Orn()-ATERLA-Aad-FLQRATF-Gly(Me)-A-Ile(Me)-LSSTEVGSNT-Hyp-NH2] ({C20 diacid-γGlu}-RDGTAT[Orn]ATERLA[Aad]FLQRATF[Sar]A[NMeI]LSSTEVGSNT[Hyp]-NH2; lactam 2-7)
0.019 nM	0.009 nM	FND	FND	FND	<1%	1%	<1%				CC[C@H](C)[C@@H](C(=O)N[C@@H](CC(C)C)C(=O)N[C@@H](CO)C(=O)N[C@@H](CO)C(=O)N[C@H](C(=O)N[C@@H](CCC(=O)O)C(=O)N[C@H](C(=O)NCC(=O)N[C@@H](CO)C(=O)N[C@@H](CC(N)=O)C(=O)N[C@H](C(=O)N1C[C@H](O)C[C@H]1C(N)=O)[C@@H](C)O)C(C)C)[C@@H](C)O)N(C)C(=O)[C@H](C)NC(=O)CN(C)C(=O)[C@H](Cc1ccccc1)NC(=O)[C@H](CC(N)=O)NC(=O)[C@H](C)NC(=O)[C@H](CCCNC(=N)N)NC(=O)[C@H](CCC(N)=O)NC(=O)[C@H](CC(C)C)NC(=O)[C@H](Cc1ccccc1)NC(=O)[C@H](CCCC(=O)O)NC(=O)[C@H](C)NC(=O)[C@H](CC(C)C)NC(=O)[C@H](CCCNC(=N)N)NC(=O)[C@H](CCC(=O)O)NC(=O)[C@@H](NC(=O)[C@H](C)NC(=O)[C@@H]1CCCCNC(=O)C[C@H](NC(=O)[C@H](CCCNC(=N)N)NC(=O)CC[C@H](NC(=O)CCCCCCCCCCCCCCCCCCC(=O)O)C(=O)O)C(=O)NCC(=O)N[C@@H]([C@@H](C)O)C(=O)N[C@@H](C)C(=O)N[C@@H]([C@@H](C)O)C(=O)N1)[C@@H](C)O [Compound 33, [19CD]-isoGlu-RD()GTATK()ATERLA-Aad-FLQRANF-Gly(Me)-A-Ile(Me)-LSSTEVGSNT-Hyp-NH2] ({C20 diacid-γGlu}-RDGTATKATERLA[Aad]FLQRANF[Sar]A[NMeI]LSSTEVGSNT[Hyp]-NH2; lactam 2-7)
